Consider six compounds from patent publication US7807713B2, “Pan-antagonists for the androgen receptor and androgen associated with anti-androgen withdrawal” (University of Delaware, priority 2006, dated 2010).

Format in all cases: cell-based
In assay [1] the target is T1, hAR(T877A) (Homo sapiens, UniProt P10275, T878A).
T1 construct: expressed in transfected cells; host or cells: CV-1
T1 sequence (P10275 1-920 T878A): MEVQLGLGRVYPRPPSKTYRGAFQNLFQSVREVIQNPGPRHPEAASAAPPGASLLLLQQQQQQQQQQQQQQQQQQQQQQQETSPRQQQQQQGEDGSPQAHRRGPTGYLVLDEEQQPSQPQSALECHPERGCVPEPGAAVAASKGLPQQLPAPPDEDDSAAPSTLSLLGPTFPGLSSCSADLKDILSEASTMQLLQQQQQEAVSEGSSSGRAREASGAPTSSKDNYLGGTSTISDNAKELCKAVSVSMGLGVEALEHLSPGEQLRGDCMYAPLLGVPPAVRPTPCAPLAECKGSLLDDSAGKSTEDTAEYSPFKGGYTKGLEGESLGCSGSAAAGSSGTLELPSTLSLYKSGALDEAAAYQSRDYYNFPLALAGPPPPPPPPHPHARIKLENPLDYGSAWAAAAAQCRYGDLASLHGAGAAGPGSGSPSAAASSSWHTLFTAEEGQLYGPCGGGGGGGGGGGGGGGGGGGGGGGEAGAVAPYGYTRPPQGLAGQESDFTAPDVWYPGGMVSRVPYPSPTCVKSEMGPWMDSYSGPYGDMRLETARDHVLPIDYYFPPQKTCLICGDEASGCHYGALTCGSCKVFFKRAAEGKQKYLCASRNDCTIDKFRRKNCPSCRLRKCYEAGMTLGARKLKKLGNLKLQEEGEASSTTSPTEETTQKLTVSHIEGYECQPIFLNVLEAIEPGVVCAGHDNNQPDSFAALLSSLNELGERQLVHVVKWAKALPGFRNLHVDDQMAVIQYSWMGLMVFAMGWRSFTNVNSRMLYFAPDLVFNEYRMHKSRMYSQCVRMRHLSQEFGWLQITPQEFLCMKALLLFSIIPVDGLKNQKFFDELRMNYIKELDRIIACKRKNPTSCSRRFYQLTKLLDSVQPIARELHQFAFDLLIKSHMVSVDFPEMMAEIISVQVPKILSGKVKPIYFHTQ
The assay can be described thus: Transcription assay (ARE-luciferase reporter, CV-1 cells), mutant androgen receptor T877A. As to the method:
(§1) Twenty-four hours prior to transfection, CV-1 cells were seeded at a density of 45,000 cells per well in 24-well cell culture plates and grown in phenol red free Dulbecco's Modified Eagle Medium (DMEM) supplemented with 10% cosmic calf serum (CCS). ARE-luciferase reporter and Renilla-Luc as the internal standard and a […] expression vector encoding the wild-type androgen receptor or mutant androgen receptor were transfected with Lipofectamine (Invitrogen) following manufacturer's protocol. Five hours after transfection, media was added containing the appropriate concentrations of ligands. The cells were allowed to incubate for 38 hours before harvesting by passive lysis buffer. Cell extracts were immediately assayed using the Dual Luciferase Assay (Promega).

Assay [2] deals with T2, hAR(W741C) (Homo sapiens, UniProt P10275, W742C).
T2 construct: expressed in transfected cells; host or cells: CV-1
T2 sequence (P10275 1-920 W742C): T1 sequence (P10275 1-920 T878A) with W742C, A878T
The assay is described as follows: Transcription assay (ARE-luciferase reporter, CV-1 cells), mutant androgen receptor W741C. As to the method: as §1
(Reporter assays use an easily measured gene product as a stand-in for the process of interest.)

In assay [3] the test system is LNCaP cells. The assay can be described thus: Cell proliferation assay (CyQuant), R1881 induced. The note with it: 8 day ligand treatment ± R1881, FIG. 9. An excerpt:
FIG. 9. LNCaP cell proliferation (CyQuant) after 8 day ligand treatment±R1881. Relative Fluorescence±SEM. (R1881±ligand; P<0.05, one-way ANOVA).
Further evidence that formulae such as PLM1 can act to limit androgen dependent proliferation of prostate cells was obtained by cell proliferation assays as determined using CyQuant® assays, according to manufacturer's instructions (invitrogen).

The target in assay [4] is T3, hAR(wt) (Homo sapiens, UniProt P10275).
T3 construct: expressed in transfected cells; host or cells: CV-1
T3 sequence (P10275 1-920): T1 sequence (P10275 1-920 T878A) with A878T
The assay can be described thus: Transcription assay (ARE-luciferase reporter, CV-1 cells), wild-type androgen receptor. As to the method:
as §1

Substitutions are numbered along the chain they refer to. Read-outs that look alike come from different tables or passages of the source.

Turning to `CC(O)(CS(=O)(=O)c1ccccc1Cc1ccccc1O)C(=O)Nc1ccc(C#N)c(C(F)(F)F)c1` (stereo not drawn) [PAN11, N-(4-cyano-3-(trifluoromethyl)phenyl)-2-hydroxy-3-(2-(2-hydroxybenzyl)phenylsulfonyl)-2-methylpropanamide], the EC50 – broadly, the concentration that produces a half-maximal response – in assay [1] turned out to be 1.9 nM.

`CC(O)(CS(=O)(=O)c1ccc(Br)c2ccccc12)C(=O)Nc1ccc(C#N)c(C(F)(F)F)c1` (stereo not drawn) [PLM9, 3-(1-bromonaphthalen-4-ylsulfonyl)-N-(4-cyano-3-(trifluoromethyl)phenyl)-2-hydroxy-2-methylpropanamide]: a half-maximal effect in assay [1] (EC50) was put at 426 ± 72 nM.

Regarding “3-(2-phenylphenylsulfonyl)-N-(4-cyano-3-(trifluoromethyl)phenyl)-2-hydroxy-2-methylpropanamide [PLM4]”, the concentration giving a half-maximal response (EC50) in assay [2] (half maximal activation of reporter gene expression (agonism), '—' = no effect, read-out: hAR(W741C) EC50) came to 33 ± 9.8 nM.

With `CC(O)(CS(=O)(=O)c1cccc(Cc2ccccc2)c1)C(=O)Nc1ccc(C#N)c(C(F)(F)F)c1` (stereo not drawn) [PLM3, 3-(3-benzylphenylsulfonyl)-N-(4-cyano-3-(trifluoromethyl)phenyl)-2-hydroxy-2-methylpropanamide], in assay [2], it took 630 ± 67 nM to reach a half-maximal effect (EC50).

`CC(O)(CS(=O)(=O)c1cccc2ccccc12)C(=O)Nc1ccc(C#N)c(C(F)(F)F)c1` (stereo not drawn) [PLM1, N-(4-cyano-3-(trifluoromethyl)phenyl)-2-hydroxy-2-methyl-3-(naphthalen-1-ylsulfonyl)propanamide]: the “inhibiting androgen (R1881) induced proliferation of LNCaP cells” value in assay [3] was “at least as potent as biclutamide itself”.

The compound `CC(O)(CS(=O)(=O)c1ccccc1Cc1cccc(O)c1)C(=O)Nc1ccc(C#N)c(C(F)(F)F)c1` (stereo not drawn) [PAN21, N-(4-cyano-3-(trifluoromethyl)phenyl)-2-hydroxy-3-(2-(3-hydroxybenzyl)phenylsulfonyl)-2-methylpropanamide] yielded an EC50 in assay [4] of 1.8 nM.
